Assay results reported in US10981932B2, “Macrocyclic indole derivatives” (Bayer Aktiengesellschaft, priority 2016, dated 2021).
Structures can show the parent of a compound that is named as a salt. Where two headings read alike, the source gives them in different places.

Legend:
SUDHL10 [1] = assay: Anti-proliferative effect (CellTiter-Glo, 72 h), SUDHL10; assay type: cell-based; details: SUDHL10 cells, antiproliferation, 72 h incubation, median, read-out: Antiproli SUDHL10 [M] (median)
Method in brief: (§1)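 Viable cells quantified with CellTiter-Glo after 72 h at 37 °C; rim wells excluded; day 0 plate as baseline.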

MCL-1 = MCL-1 (Homo sapiens, UniProt Q07820); assay: Protein-protein interaction assay MCL-1/Noxa BH3 peptide (MCL-1 assay), TR-FRET; assay type: binding; details: MBP-MCL-1 / Noxa BH3-derived peptide, median
Method in brief: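 Displacement of the biotinylated Noxa BH3 peptide from MBP-tagged human MCL-1 (1 nM) is detected by time-resolved FRET. Compounds are tested in duplicate across eleven concentrations up to 20 μM, incubated 1 h at 22 °C and overnight at 4 °C, and IC50 is fitted with a four-parameter equation.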

SUDHL10 [2] = assay: Induction of caspase-3/7 activity (Caspase-Glo 3/7), SUDHL10; assay type: cell-based; details: caspase-3/7 induction, SUDHL10 cells, 3 h treatment, median
Method in brief: (§2)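 Caspase-Glo 3/7 luminescence, 3 h compound exposure, 37 °C, humidified. Minus medium-only blank. EC50 fit: C0=1, plateau = reference max induction.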

SUDHL5 [3] = assay: Induction of cytotoxicity (CellTiter-Glo, 5 h), SUDHL5
SUDHL10 [4] = assay: Induction of cytotoxicity (CellTiter-Glo, 5 h), SUDHL10
OPM2 = assay: Anti-proliferative effect (CellTiter-Glo, 72 h), OPM2; assay type: cell-based; details: OPM2 cells, median, read-out: IC50 antiproliferation assay OPM2 [M] (median)
Method in brief: as §1

MV-4-11 = assay: Anti-proliferative effect (CellTiter-Glo, 72 h), MV-4-11; assay type: cell-based; details: MV-4-11 cells, median, read-out: IC50 antiproliferation assay MV-4-11 [M] (median)
Method in brief: as §1

A2780 = assay: Anti-proliferative effect (CellTiter-Glo, 72 h), A2780; assay type: cell-based; details: A2780 cells, median, read-out: IC50 antiproliferation assay A2780 [M] (median)
Method in brief: as §1

SUDHL5 [5] = assay: Anti-proliferative effect (CellTiter-Glo, 72 h), SUDHL5; assay type: cell-based; details: SUDHL5 cells, antiproliferation, 72 h incubation, median, read-out: Antiproli SUDHL5 [M] (median)
Method in brief: as §1

SUDHL5 [6] = assay: Induction of caspase-3/7 activity (Caspase-Glo 3/7), SUDHL5; assay type: cell-based; details: caspase-3/7 induction, SUDHL5 cells, 3 h treatment, median
Method in brief: as §2

[7] = Homo sapiens, SU-DHL-5, 5 h, read-out: Cytotox SUDHL5 [M] (median), SUDHL5 cells, cytotoxicity induction, CellTiter-Glo, 5 h incubation, median
[8] = Homo sapiens, SU-DHL10, 5 h, read-out: Cytotox SUDHL10 [M] (median), SUDHL10 cells, cytotoxicity induction, CellTiter-Glo, 5 h incubation, median
[9] = read-out: Cytotox SUDHL5 [M] (median), SUDHL5 cells, cytotoxicity induction, CellTiter-Glo, 5 h incubation, median
[10] = read-out: Cytotox SUDHL10 [M] (median), SUDHL10 cells, cytotoxicity induction, CellTiter-Glo, 5 h incubation, median

MCL-1, sequence (Q07820 whole entry): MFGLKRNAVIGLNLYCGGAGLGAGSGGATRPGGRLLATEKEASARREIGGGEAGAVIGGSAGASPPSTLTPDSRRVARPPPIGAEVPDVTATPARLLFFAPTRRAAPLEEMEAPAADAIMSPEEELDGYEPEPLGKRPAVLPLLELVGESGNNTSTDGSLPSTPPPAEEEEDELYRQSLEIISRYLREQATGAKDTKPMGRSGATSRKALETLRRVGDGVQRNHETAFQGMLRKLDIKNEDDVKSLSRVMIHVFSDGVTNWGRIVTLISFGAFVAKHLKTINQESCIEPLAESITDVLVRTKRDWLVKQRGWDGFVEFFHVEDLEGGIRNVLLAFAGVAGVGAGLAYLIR

IC50 (SUDHL10 [1]; Homo sapiens, SU-DHL10, 72 h) [M] | IC50 (MCL-1) [µM] | EC50 (SUDHL10 [2]; Homo sapiens, SU-DHL10, 3 h) [µM] | IC50 (MV-4-11; Homo sapiens, MV4-11, 72 h) [M] | IC50 (A2780; Homo sapiens, A2780, 72 h) [M] | IC50 (SUDHL5 [5]; Homo sapiens, SU-DHL-5, 72 h) [M] | EC50 (SUDHL5 [6]; Homo sapiens, SU-DHL-5, 3 h) [µM] | EC50 (SUDHL10 [2]) [µM] | IC50 (SUDHL5 [5]) [M] | EC50 (SUDHL5 [6]) [µM] | IC50 (SUDHL10 [1]) [M] | IC50 (MV-4-11) [M] | IC50 (A2780) [M] | SMILES | IC50 (SUDHL5 [3]; [7]) [M] | IC50 (SUDHL10 [4]; [8]) [M] | IC50 (OPM2; Homo sapiens, OPM-2, 72 h) [M] | IC50 (SUDHL5 [3]; [9]) [M] | IC50 (OPM2) [M] | IC50 (SUDHL10 [4]; [10]) [M]
9.28e-07 | 0.00175 | 0.652 | 2.44e-06 | 4.31e-06 | 7.61e-07 | 0.405 |  |  |  |  |  |  | Cn1nc(COc2ccc(N3CCN(S(=O)(=O)C4CC4)CC3)cc2)c2c1COCCCCn1c(C(=O)O)c(CCCOc3cccc4ccccc34)c3cccc-2c31 (racemic) [Example 1-11, (rac)-3-({4-[4-(cyclopropylsulfonyl)piperazin-1-yl]phenoxy}methyl)-1-methyl-7-[3-(naphthalen-1-yloxy)propyl]-110,11,12,13,15-hexahydropyrazolo[4′,3′:9,10][1,6]oxazacycloundecino[8,7,6-hi]indole-8-carboxylic Acid] | 8.89e-07 | 1.03e-06 | 1.51e-06 |  |  | 
7.34e-06 | 0.00527 | 20.4 | 2.98e-05 | 2.54e-05 | 9.27e-06 | 6.7 |  |  |  |  |  |  | Cc1ccc2c(CCCOc3cccc4ccccc34)c(C(=O)O)n3c2c1-c1c(C)nn(C)c1COCCCC3 (racemic) [Example 027, (rac)-1,3,4-trimethyl-7-[3-(naphthalen-1-yloxy)propyl]-1,10,11,12,13,15-hexahydropyrazolo[4′,3′:9,10][1,6]oxazacycloundecino[8,7,6-hi]indole-8-carboxylic Acid] | 8.54e-06 | 2.59e-05 | > 3.3e-05 |  |  | 
3.93e-06 | 0.00377 | 7.48 | 1.37e-05 | 2.44e-05 | 3.06e-06 | 2.26 |  |  |  |  |  |  | CCc1c2c(nn1C)COCCCCn1c(C(=O)O)c(CCCOc3cccc4ccccc34)c3cccc-2c31 (racemic) [Example 147, (rac)-3-Ethyl-2-methyl-7-[3-(1-naphthyloxy)propyl]-2,10,11,12,13,15-hexahydropyrazolo[4′,3′:9,10][1,6]oxazacycloundecino[8,7,6-hi]indole-8-carboxylic Acid] | 2.8e-06 | 9.53e-06 | 1.05e-05 |  |  | 
9.58e-06 | 0.0542 |  | 1.21e-05 | 2.31e-05 |  |  | 18.8 | 1.22e-05 | 20.4 |  |  |  | CN1CCCn2c(C(=O)O)c(CCCOc3cccc4ccccc34)c3cccc(c32)-c2c(COc3ccc(S(C)(=O)=O)cc3)nn(C)c2C1 (single isomer, unassigned) [Example 1-49, (−)-7,9-dimethyl-11-{[4-(methylsulfonyl)phenoxy]methyl}-1-[3-(naphthalen-1-yloxy)propyl]-4,5,6,7,8,9-hexahydropyrazolo[3′,4′:7,8][1,5]diazecino[9,10,1-hi]indole-2-carboxylic Acid] |  | 2.5e-05 |  | 3.3e-05 | > 3.3e-05 | 
 | 0.0167 |  |  |  |  |  | 6.71 | 5.52e-06 | 6.14 | 9.59e-06 | 1.05e-05 | 1.83e-05 | CN1CCCn2c(C(=O)O)c(CCCOc3cccc4ccccc34)c3cccc(c32)-c2c(COc3ccc(S(C)(=O)=O)cc3)nn(C)c2C1 (single isomer, unassigned) [Example 1-50] |  |  |  | 5.74e-06 | 1.21e-05 | 1.26e-05
7.55e-06 | 0.281 |  | 7.75e-06 | 2.26e-05 | 1.25e-05 |  | > 33 |  | 31 |  |  |  | Cn1nc(COc2ccc(S(C)(=O)=O)cc2)c2c1COCC=CCn1c(C(=O)O)c(CCCOc3cccc4ccccc34)c3cccc-2c31 (single isomer, unassigned) [Example 1-52, (E/Z)-1-methy-3-{[4-(methylsulfonyl)phenoxy]methyl}-7-[3-(naphthalen-1-yloxy)propyl]-1,10,13,15-tetrahydropyrazolo[4′,3′:9,10][1,6]oxazacycloundecino[8,7,6-hi]indole-8-carboxylic Acid] |  |  | 3.2e-05 | 3.15e-05 |  | 2.71e-05
4.3e-06 | 0.0102 | 7.32 | 2.62e-06 | 7.55e-06 | 2.48e-06 | 6.34 |  |  |  |  |  |  | COc1ccccc1-c1ncc(OCc2nn(C)c3c2-c2cccc4c(CCCOc5cccc6ccccc56)c(C(=O)O)n(c24)CCCN(C)C3)cn1 (single isomer, unassigned) [Example 1-91, 11-({[2-(2-methoxyphenyl)pyrimidin-5-yl]oxy}methyl)-7,9-dimethyl-1-[3-(naphthalen-1-yloxy)propyl]-4,5,6,7,8,9-hexahydropyrazolo[3′,4′:7,8][1,5]diazecino[9,10,1-hi]indole-2-carboxylic acid-N-ethylethanamine Salt] |  | 9.23e-06 | 8.37e-06 | 5.99e-06 |  | 
 | 0.0068 |  |  |  |  |  | 4.47 | 3.21e-06 | 3.88 | 3.83e-06 | 1.57e-06 | 6.23e-06 | COc1ccccc1-c1ncc(OCc2nn(C)c3c2-c2cccc4c(CCCOc5cccc6ccccc56)c(C(=O)O)n(c24)CCCN(C)C3)cn1 (single isomer, unassigned) [Example 1-92, 11-({[2-(2-methoxyphenyl)pyrimidin-5-yl]oxy}methyl)-7,9-dimethyl-1-[3-(naphthalen-1-yloxy)propyl]-4,5,6,7,8,9-hexahydropyrazolo[3′,4′:7,8][1,5]diazecino[9,10,1-hi]indole-2-carboxylic acid-N-ethylethanamine Salt] |  |  |  | 2.9e-06 | 9.6e-06 | 5.77e-06
 | 0.0242 |  |  |  |  |  | 14.7 | 3.37e-06 | 12.5 | 1.17e-05 | 8.59e-06 | > 3.3e-05 | Cn1nc(COc2ccc(N3CCN(S(C)(=O)=O)CC3)cc2)c2c1COCCCCn1c(C(=O)O)c(CCCOc3cccc4ccccc34)c3cccc-2c31 (single isomer, unassigned; enantiomer 1) [Example 1-9, 1-methyl-3-({4-[4-(methylsulfonyl)piperazin-1-yl]phenoxy}methyl)-7-[3-(naphthalen-1-yloxy)propyl]-1,10,11,12,13,15-hexahydropyrazolo[4′,3′:9,10][1,6]oxazacycloundecino[8,7,6-hi]indole-8-carboxylic Acid (Enantiomer 1)] |  |  |  | 9.46e-06 | > 3.3e-05 | 9.08e-06
 | 0.0688 |  |  |  |  |  | 20.4 | 5.72e-06 | 18.3 | 8.96e-06 | 6.78e-06 | > 3.3e-05 | Cn1nc(COc2ccc(N3CCN(S(=O)(=O)C4CC4)CC3)cc2)c2c1COCCCCn1c(C(=O)O)c(CCCOc3cccc4ccccc34)c3cccc-2c31 (single isomer, unassigned; enantiomer 1) [Example 1-12, 3-({4-[4-(cyclopropylsulfonyl)piperazin-1-yl]phenoxy}methyl)-1-methyl-7-[3-(naphthalen-1-yloxy)propyl]-1,10,11,12,13,15-hexahydropyrazolo[4′,3′:9,10][1,6]oxazacycloundecino[8,7,6-hi]indole-8-carboxylic Acid (Enantiomer 1)] |  |  |  | 1.73e-05 | > 3.3e-05 | 1.43e-05
